One experiment relates to MDA-MB-231 cells. Kind of experiment: MDA-MD-231 Matrigel outgrowth assay. It counts as cell-based. The following applies: MDA-MB-231 cells on Matrigel, after 5 days, compared to control (OPTIMEM). Here is the method: FIG. 14: Matrigel outgrowth assay. Monolayers of cells (MDA-MD-MB231) were grown to 80% confluence and collected during log phase. 5×10^3 cells were added per well (96 well format) on top of preset Matrigel (50 ul). 50 ul of bioactive supematant was added per well. Colony outgrowth was monitored over the course of the experiment and photographed after 2 (FIG. 14A) and 5 (FIG. 14B) days.
Monolayers of cells (MDA-MD-MB231) were grown in DMEM+10% FCS to 80% confluence and collected during log phase. Cells were removed from plastic using versene/trypsin (2 min/370C) and resuspended in 10 ml media. Cell were washed thrice with PBS and centrifugation. 5×10^3 cells were added per well (96 well format) on top of preset Matrigel (50 ul). 50 ul of bioactive supernatant was added per well. Colony outgrowth was monitored over the course of the experiment and photographed after 2 and 5 days.

Experiment [1] deals with HSC-2 oral epithelial cells. Kind of experiment: Cell viability assay to assess anti- and pro-apoptotic effects (vinblastine, Alamar Blue). Format: cell-based. The settings on record: HSC-2 cells. As to the method:
Plasmids containing Tammar wallaby LAMs were directionally cloned into the expression vector pCMV Sport 6.0, and then transfected into the human kidney cell line HK293. A total of 1 μg of LAM-containing plasmid DNA and 10 ng of pEGFP-C1 plasmid was introduced into 70% confluent HK293 cells in 2 cm^2 wells containing 500 ul of opti-MEM-1 media. Transfection success was assessed by observing green fluorescence of cells by fluorescent microscopy. After 48 hours conditioned media containing the secreted polypeptide was collected and frozen at −20° C. The media containing the secreted polypeptides was then used directly in a variety of bioactivity assays. For the assays described below, samples of secreted polypeptides were aliquoted into individual wells of 96 or 384 well plates and stored, prior to assaying, either frozen or lyophilized.
A negative control created by transfection with an insertless vector was used in all assays. For the assays described in Examples 4A, 4B, 4C and 4D results for samples were in the form of relative fluorescence units (RFU) as described herein. […] In some cases, RFU less than two standard deviations from the mean were considered significant if the LAM sample in question produced a positive result in another assay.
Vinblastine is a commonly used cytotoxic agent used in chemotherapy. It induces apoptosis in a wide variety of cell types. Caspase activation and DNA fragmentation are hallmarks of the apoptotic process.
Aliquots of the secreted polypeptide samples in 96 well plates were pipetted onto HSC-2 oral epithelial cells and the cells left for 24 hours. After this time, the cells were treated with vinblastine to induce apoptosis. After a further 48 hours, the cells were analyzed for survival using a vital dye, namely Alamar Blue (resazurin) fluorescent dye (TGR BioSciences Pty Ltd, Adelaide, Australia). This dye method is a TGR proprietary assay technology and as such would be known by a person skilled in the art. Internal controls for induction of cell death via apoptosis as well as assay performance were also included on each plate. Cell survival measurements with this technique reflected the degree of apoptosis.

For the substance “LAM 13: PLA2G1B; tammar wallaby polypeptide SEQ ID NO 43, bovine polypeptide SEQ ID NO 103”, the proliferation of cells entry in the experiment with MDA-MB-231 cells was “increased proliferation of cells”. For the same substance, the “RFU (anti-apoptotic activity)” value in experiment [1] (vinblastine, Alamar Blue, Mean RFU 679787, SD RFU 39919, negative control 696444 RFU) is 779746 RFU. Besides, the “anti- or pro-apoptotic activity (RFU versus mean)” value in experiment [1] (text summary of Tables 8-11) is recorded as “anti-apoptotic activity”.

The record behind these values is patent publication US20110201105A1, “LACTATION-ASSOCIATED POLYPEPTIDES” (Dairy Australia Limited, priority 2007, published 2011).
